Test results taken from US8337444B2, “Measurement of cardiac output and blood volume by non-invasive detection of indicator dilution for hemodialysis” (Alfred E. Mann Institute for Biomedical Engineering at the …, priority 2001, dated 2012).

How the values were obtained:
[1] = Blood ICG concentration after high dose intravenous injection (calibration sequence); assay type: in vivo, New Zealand White rabbits; conditions: rabbit, 1 mg ICG intravenously, metabolized by the liver
Source text: A. A sample method and system for measuring cardiac output and blood volume. Experiments have been performed in New Zealand White rabbits (2.8-3.5 Kg) anesthetized with halothane and artificially ventilated with an oxygen-enriched gas mixture (Fio2˜0.4) to achieve a Sao2 above 99% and an end-tidal CO2 between 28 and 32 mm Hg (FIG. 4). The left femoral artery was cannulated for measurement of the arterial blood pressure throughout the procedure. A small catheter was positioned in the left brachial vein to inject the indicator, ICG. Body temperature was maintained with a heat lamp.
Calibration of the transcutaneous fluorescence intensity measured at the level of the animals' ear as a function of ICG concentration in blood was performed as follows. […]
As the liver metabolizes ICG, the blood ICG concentration decreases back to 0 in about 20 minutes. […] The fluorescence intensity of the blood in the cuvette was converted to a measurement of concentration using the known standard curve of fluorescence intensity versus ICG concentration established for the cuvette. ICG fluorescence was measured at the level of the ear at the exact time of the blood sample withdrawal. […]
For the range of concentrations used in these studies, ICG concentration and transcutaneous fluorescence were linearly related. […]

[2] = cited from earlier work
blood proteins = conditions: protein-bound ICG not cleared by dialysis; cited from earlier work

time for blood ICG concentration to decrease back to 0 [1]: about 20 minutes
Compound: CC1(C)C(/C=C/C=C/C=C/C=C2\N(CCCCS(=O)(=O)O)c3ccc4ccccc4c3C2(C)C)=[N+](CCCCS(=O)(=O)[O-])c2ccc3ccccc3c21 [ICG, indocyanine green]
stability in aqueous solution [2]: breaks down quickly
fraction of ICG injected in the bloodstream that binds to blood proteins (blood proteins): more than 95%
